Like-named read-outs stand apart in the source and are kept apart here.
What was measured:
carageenan-induced edema = test: Carrageenan-induced rat paw edema test (anti-inflammatory activity); format: in vivo, Sprague-Dawley rats; conditions: carrageenan-induced rat paw edema, defined in Example 397; for inhibition in vivo at 50 mg/kg: po, 3 h, read-out: % Protection
Summary of the method: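 Edema was raised by sub-plantar injection of 1% carrageenan into the right hind paw, 1 h after dosing 18 h-fasted male/female Sprague-Dawley rats (150-250 g) with 50 mg/kg p.o. in 0.1% CMC. Swelling was measured by displacement 3 h later and expressed as % protection against saline control.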

NF-κB = NF-κB inhibitor screen: basal NF-κB-dependent luciferase expression in HEK/NF-κB cell line; format: cell-based; conditions: for inhibition at 1 µM: read-out: NFkB inhibition @ 1 uM
Excerpt: Development of NF-κB and AP-1 Screens: Two HEK293 cell lines were purchased from Panomics. One cell line was stably transfected with a plasmid in which luciferase expression is regulated by six copies of the NF-κB transcriptional element (5′-[…]-3′); and the other cell line was stably transfected with a plasmid in which luciferase expression is regulated by three copies of the AP-1 transcriptional element (TGACTAA). To test the biological activity of the promoters, the HEK/NF-κB cell line was stimulated with TNF-α (20 ng/ml) for 24 hours, and the HEK/AP-1 cell line was stimulated with PMA (10 ng/ml) for 24 hours. […] In addition, a pyrimidine carboxyimide that had previously been shown (ref. 58) to be an inhibitor of transcription mediated by NF-κB and AP-1 reduced luciferase activity by approximately 40% in each of the NF-κB and AP-1 cell lines.
The above two assays analyzed the effects of the compounds on post-transcriptional gene regulation, which is known to play a key role in cancer and inflammation. By contrast, the NF-κB assay and the following assay (AP-1) test whether the compounds act at the transcriptional level. Thirty-nine representative compounds were screened in an HEK/NF-κB cell line. HEK cells were stably transfected with a plasmid expressing luciferase under the control of the NF-κB promoter. These transfected cells were plated on a 96-well plate. As above, initial screening was carried out at 1.0 μM by adding compound in DMSO (0.3%) twenty-four hours after plating. Each compound was added to each of triplicate wells. DMSO (0.3%) was added to one set of wells as a control. Luciferase activity was determined using Promega's Brite-Glo kit, and the mean for each sample was normalized to that for DMSO.
The fourteen representative compounds identified in the eIF4E screen as interesting (Numbered 2, 3, 4, 6, 8, 11, 15, 20, 21, 24, 25, 32, 33, and 35) were then tested for luciferase activity in a six-point dose response (10 nM, 33 nM, 100 nM, 330 nM, 1000 nM, and 3300 nM). Screening was carried out as described above by monitoring the effects of the compounds on basal NF-κB-dependent luciferase expression. Each dose was used out in triplicate, and repeated between two and four times. Results were normalized by the average expression level at the lowest concentration level, as described above.

AP-1 = AP-1 inhibitor screen: basal AP-1-dependent luciferase expression in HEK/AP-1 cell line; format: cell-based; conditions: 1 uM, determined as described in Example 398; for inhibition at 1 µM: AP1
Excerpt: Development of NF-κB and AP-1 Screens: Two HEK293 cell lines were purchased from Panomics. One cell line was stably transfected with a plasmid in which luciferase expression is regulated by six copies of the NF-κB transcriptional element (5′-[…]-3′); and the other cell line was stably transfected with a plasmid in which luciferase expression is regulated by three copies of the AP-1 transcriptional element (TGACTAA). To test the biological activity of the promoters, the HEK/NF-κB cell line was stimulated with TNF-α (20 ng/ml) for 24 hours, and the HEK/AP-1 cell line was stimulated with PMA (10 ng/ml) for 24 hours.
HEK cells were stably transfected with a plasmid expressing luciferase under the control of the AP-1 promoter. The transfected cells were plated on a 96-well plate for 24 hr. Then 1.0 μM of each compound in DMSO (0.3%) was added to triplicate wells and incubated for 48 hr. DMSO (0.3%) was added to one set of triplicate wells as a control. Luciferase activity was determined using Promega's Brite-Glo kit, and the mean for each sample was normalized to that for DMSO.
Screening was carried out as described above, monitoring the compounds' effects on basal AP-1-dependent luciferase expression. Each dose-response experiment was carried out in triplicate and repeated between two and four times.

[1] = 1 uM, determined as described in Example 398

Compound	melting point [°C]	inhibition at 1 µM (NF-κB; [1]) [%]	inhibition at 1 µM (AP-1) [%]	inhibition in vivo at 50 mg/kg (carageenan-induced edema; Rattus norvegicus) [%]	further results
CCOC(=O)Nc1nc(C)c(-c2nc3ccccc3c(=O)n2-c2cccc(C)c2)s1	210 to 211	–	–	–	–
COC(=O)Nc1nc(C)c(-c2nc3ccccc3c(=O)n2-c2cccc(C)c2)s1	232 to 233	–	–	–	–
Cc1cnc(-c2cc(-c3ccccc3)c(N3CCOCC3)s2)cc1OCC(F)(F)F [Example 41, 4-{5-[5-Methyl-4-(2,2,2-trifluoro-ethoxy)-pyridine-2-yl]-3-phenyl-thiophene-2-yl}-morpholine]	145 to 147	–	–	–	–
Cc1nc(NC(=O)c2ccco2)sc1C(=O)c1sc(NC(=O)c2ccco2)nc1C [Example 122, Bis-[2-(2-Furoyl-amino)-4-methyl-thiazole-5-yl]-methanone]	198 to 199	–	–	–	–
CNc1nc(-c2ccccc2)c(-c2nc3ccccc3c(=O)n2-c2ccccc2C)s1 [Example 173, 2-(2-methylamino-4-phenyl-thiazol-5-yl)-3-o-tolyl-3H-quinazolin-4-one]	220 to 225	–	–	–	–
Cc1ccccc1-n1c(-c2sc(Nc3ccccc3)nc2-c2ccccc2)nc2ccccc2c1=O [Example 174, 3-o-Tolyl-2-(4-phenyl-2-phenylamino-thiazol-5-yl)-3H-quinazolin-4-one]	141 to 143	–	–	–	–
Cc1ccccc1-n1c(-c2sc(NC(=O)c3ccccc3)nc2-c2ccccc2)nc2ccccc2c1=O [Example 175, N-[5-(4-Oxo-3-o-tolyl-3,4-dihydro-quinazolin-2-yl)-4-phenyl-thiazole-2-yl]benzamide]	> 275	–	–	–	–
CCOC(=O)Nc1nc(-c2ccccc2)c(-c2nc3ccccc3c(=O)n2-c2cccc(C)c2)s1 [Example 184, [5-(4-Oxo-3-m-tolyl-3,4-dihydro-quinazolin-2-yl)-4-phenyl-thiazol-2-yl]-carbamic acid ethyl ester]	261 to 263	–	–	–	–
COC(=O)Nc1nc(-c2ccccc2)c(-c2nc3ccccc3c(=O)n2-c2cccc(C)c2)s1 [Example 185, [5-(4-Oxo-3-m-tolyl-3,4-dihydro-quinazolin-2-yl)-4-phenyl-thiazol-2-yl]-carbamic acid methyl ester]	268 to 269	–	–	–	–
Cc1cccc(-n2c(-c3sc(Nc4ccccc4)nc3-c3ccccc3)nc3ccccc3c2=O)c1 [Example 187, 3-m-Tolyl-2-(4-phenyl-2-phenylamino-thiazol-5-yl)-3H-quinazolin-4-one]	105 to 107	–	–	–	–
Cc1ccc(-n2c(-c3sc(Nc4ccccc4)nc3C)nc3ccccc3c2=O)cc1 [Example 191, 2-(4-Methyl-2-phenylamino-thiazol-5-yl)-3-p-tolyl-3H-quinazolin-4-one]	256 to 257	–	–	–	–
COC(=O)Nc1nc(-c2ccccc2)c(-c2nc3ccccc3c(=O)n2-c2ccc(C)cc2)s1 [Example 194, [5-(4-Oxo-3-p-tolyl-3,4-dihydro-quinazolin-2-yl)-4-phenyl-thiazol-2-yl]-carbamic acid methyl ester]	> 275	–	–	–	–
Cc1nc(Nc2ccc(Cl)cc2)sc1-c1nc2ccccc2c(=O)n1-c1ccc(Cl)cc1 [Example 246, 2-[2-(4-Chlorophenylamino)-4-methyl-thiazol-5-yl]-3-(4-chloro-phenyl)-3H-quinazolin-4-one]	–	96	74	–	inhibition in vivo at 50 mg/kg (carageenan-induced edema): 38%; inhibition of basal NF-κB-dependent luciferase expression (NF-κB; 3.3 μM (FIG. 12)): about 50%
CCOC(=O)Nc1nc(-c2ccccc2)c(-c2nc3ccccc3c(=O)n2-c2ccc(Cl)cc2)s1 [Example 249, [5-(4-Oxo-3-(4-Chloro-phenyl)-3,4-dihydro-quinazolin-2-yl)-4-phenyl-thiazol-2-yl]-carbamic acid ethyl ester]	–	16	0	81	–
COC(=O)Nc1nc(-c2ccccc2)c(-c2nc3ccccc3c(=O)n2-c2ccc(Cl)cc2)s1 [Example 250, [5-(4-Oxo-3-(4-Chloro-phenyl)-3,4-dihydro-quinazolin-2-yl)-4-phenyl-thiazol-2-yl]-carbamic acid methyl ester]	–	17	5	83	–
CNc1nc(-c2ccccc2)c(-c2nc3ccccc3c(=O)n2-c2ccc(Cl)cc2)s1 [Example 251, 2-(2-Methylamino-4-phenyl-thiazol-5-yl)-3-(4-Chloro-phenyl)-3H-quinazolin-4-one]	–	85	69	–	inhibition in vivo at 50 mg/kg (carageenan-induced edema): 92%
O=c1c2ccccc2nc(-c2sc(Nc3ccccc3)nc2-c2ccccc2)n1-c1ccc(Cl)cc1 [Example 252, 3-(4-Chloro-phenyl)-2-(4-phenyl-2-phenylamino-thiazol-5-yl)-3H-quinazolin-4-one]	–	80	21	81	–
O=C(Nc1nc(-c2ccccc2)c(-c2nc3ccccc3c(=O)n2-c2ccc(Cl)cc2)s1)c1ccccc1 [Example 253, N-[5-(4-Oxo-3-(4-Chloro-phenyl)-3,4-dihydro-quinazolin-2-yl)-4-phenyl-thiazole-2-yl]benzamide]	–	87	28	83	–
O=c1c2ccccc2nc(-c2sc(Nc3ccc(Cl)cc3)nc2-c2ccccc2)n1-c1ccc(Cl)cc1 [Example 256, 2-[2-(4-Chloro-phenylamino)-4-phenyl-thiazol-5-yl]-3-(4-Chloro-phenyl)-3H-quinazolin-4-one]	–	99	61	84	–
CNc1nc(C)c(-c2nc3ccccc3c(=O)n2-c2ccc(C(C)=O)cc2)s1 [Example 261, 2-(4-Methyl-2-methylamino-thiazol-5-yl)-3-(4-acetyl-phenyl)-3H-quinazolin-4-one]	–	71	-33	42	–
CC(=O)c1ccc(-n2c(-c3sc(Nc4ccc(Cl)cc4)nc3C)nc3ccccc3c2=O)cc1 [Example 263, 2-[2-(4-Chlorophenylamino)-4-methyl-thiazol-5-yl]-3-(4-acetyl-phenyl)-3H-quinazolin-4-one]	–	0	2	13	–
CCOC(=O)Nc1nc(-c2ccccc2)c(-c2nc3ccccc3c(=O)n2-c2ccc(C(C)=O)cc2)s1 [Example 264, [5-(4-Oxo-3-(4-acetyl-phenyl)-3,4-dihydro-quinazolin-2-yl)-4-phenyl-thiazol-2-yl]-carbamic acid ethyl ester]	–	25	25	40	–
CC(=O)c1ccc(-n2c(-c3sc(Nc4ccc(Cl)cc4)nc3-c3ccccc3)nc3ccccc3c2=O)cc1 [Example 271, 2-[2-(4-Chlorophenylamino)-4-phenyl-thiazol-5-yl]-3-(4-acetyl-phenyl)-3H-quinazolin-4-one]	–	-12	31	23	–
{5-[3-(4-Methoxy-phenyl)-4-oxo-3,4-dihydro-quinazolin-yl]-thiazol-2-yl}-carbamic acid ethyl ester [Example 215]	–	–	–	–	% Protection (carageenan-induced edema): 25%; NFkB inhibition @ 1 uM (NF-κB; [1]): 34; AP-1 inhibition @ 1 uM (AP-1): −6
